Columns and labels:
[1] = Plasma concentrations of oxycodone, oxymorphone, noroxycodone, naltrexone and 6β-naltrexol by solid phase extraction LC-MS/MS
Text: Patients with moderate-to-severe pain due to osteoarthritis of the hip or knee were randomly assigned to one of four treatment groups as shown in Table 3 of Example 1. Plasma samples were obtained for each patient at the beginning of Weeks 1, 2, 3 and at the end of dosing during Week 3.
For the analysis of linearity and dose proportionality, linear equation coefficients were obtained by averaging patient-specific slopes and intercepts obtained by within-patient least squares regression. This was done to account for the correlation among the repeated measurements due to the patient's contributing data at each dose level. The resulting slopes among treatment groups were compared by one-way analysis of variance (ANOVA), and a one-sample t-test assessed the common slope's difference from zero. A measure of deviation from linearity was constructed as the difference between the concentration at the middle dose versus the average of the concentrations at the lower and higher doses. Due to equal spacing of doses, this measure has expectation zero under the hypothesis of linearity. As above, ANOVA and t-tests were used to assess linearity.
To achieve symmetry, modified log transformations were used.

[2] = system: patients with moderate to severe chronic pain due to osteoarthritis of the hip or knee; assay: Emax composite model of 6β-naltrexol plasma concentration versus percent change in pain intensity; details: for EC51 Estimate / EC52 Estimate / Emax1 Estimate / Emax2 Estimate: WinNonlin
Procedure: As discussed in more detail below, the percent change in pain intensity was the drug effect used in a modeling analysis of plasma concentration vs. drug effect.
The plasma concentration-effect data were fit to the Emax composite model using the software program WinNonlin®(commercially available from Pharsight Corporation of Mountain View, Calif.) and the command files developed by Gabrielsson et al. The plasma concentration-effect data represented as circles in FIG. 11 were evaluated mathematically and the plasma concentration-effect curve shown in FIG. 11 was determined by the program and command files. Similarly, the program and command files were used to determine the plasma concentration-effect curve shown in FIG. 12 based on the data represented as circles in FIG. 12.
The computer output (printout) of this process included EC51 and EC52 parameters, as well as parameters reflecting statistical evaluation of the data, such as coefficient of variation (CV %).
These parameters are based on the data for 6β-naltrexol plasma concentrations and reduction in pain from baseline pain intensity to final pain intensity from all subjects for whom plasma concentration data was obtained as described herein. These parameters are based on data from subjects receiving the BID dosing regimens and subjects receiving the QID dosing regimen. Estimate refers to the value estimated by the WinNonlin® program and command file for relating plasma concentrations to the pharmacodynamic effects such as percent reduction in pain intensity.
These parameters are based on the data (6β-naltrexol plasma concentrations and percent reduction in pain intensity) for subjects receiving BID dosing regimens.

[3] = naltrexone hydrochloride in solution mixed with croscarmellose sodium in suspension; cited from earlier work
[4] = Total (BID and QID) data, curve of FIG. 11

Structure (SMILES): Oc1ccc2c3c1O[C@H]1[C@H](O)CC[C@@]4(O)[C@@H](C2)N(CC2CC2)CC[C@]314 [6β-naltrexol]
- Plasma concentrations over the course of the study (sampled at the end of each treatment week) ([1]; FIG. 7, combination drug BID and QID): remained constant throughout the study
- EC51 Estimate ([2]; BID data, curve of FIG. 12): 14.0 pg/mL
- EC52 Estimate ([2]; BID data, curve of FIG. 12): 0.422 pg/mL
- Emax1 Estimate ([2]; BID data, curve of FIG. 12): 27.0 units
- Emax2 Estimate ([2]; BID data, curve of FIG. 12): 76.3 units
- EC52 parameter, 6β-naltrexol plasma concentration ([2]; Emax composite model, total (BID and QID) data, Table 26, effect = percent reduction in pain intensity, 6β-naltrexol as surrogate for naltrexone): about 0.439 μg/ml
- EC51 Estimate [2, 4]: 14.4 pg/mL
- EC52 Estimate [2, 4]: 0.439 pg/mL
- Emax1 Estimate [2, 4]: 26.8 units
- Emax2 Estimate [2, 4]: 79.7 units

Structure (SMILES): O=C1CC[C@@]2(O)[C@H]3Cc4ccc(O)c5c4[C@@]2(CCN3CC2CC2)[C@H]1O5 [naltrexone]
- Fraction of naltrexone hydrochloride bound by croscarmellose sodium [3]: more than 90%

Structure (SMILES): CN1CC[C@]23c4c5ccc(O)c4O[C@H]2C(=O)CC[C@@]3(O)[C@H]1C5 [oxymorphone]
- Mean plasma concentration versus dose level over the course of the study ([1]; FIGS. 1 and 2): increased linearly with increasing dose levels
- Plasma concentration of oxymorphone (ng/mL) versus dose of oxycodone (mg/day): slope of linear equation ([1]; average of patient-specific regressions, slope p<0.001, t-test): 0.007153
- Plasma concentration of oxymorphone versus dose of oxycodone (mg/day): intercept of linear equation ([1]; average of patient-specific within-patient least squares regressions, all active treatments): 0.0607 ng/mL
